Source: US20200231607A1, “TRISUBSTITUTEDSILYLHETEROARYLOXYQUINOLINES AND ANALOGUES” (Bayer Aktiengesellschaft, priority 2017, published 2020)

Assays:
[1] = HPLC, reversed-phase C 18, 40° C., 0.1% aqueous formic acid and acetonitrile, gradient 10% to 95% acetonitrile
Procedure: temperature: 40° C.; mobile phases: 0.1% aqueous formic acid and acetonitrile; linear gradient from 10% acetonitrile to 95% acetonitrile;
Calibration was carried out using unbranched alkan-2-ones (comprising 3 to 16 carbon atoms) with known log P values (determination of the log P values by the retention times using linear interpolation between two successive alkanones). lambda-max-values were determined using UV-spectra from 200 nm to 400 nm and the peak values of the chromatographic signals.

Pyricularia oryzae = assay: microbe, parasite or virus in culture; assay type: cell-based; conditions: 120 h, read-out: efficacy (inhibition of fungal growth)
[2] = tested on: Colletotrichum lindemuthianum; assay: In vitro cell test on Colletotrichum lindemuthianum; assay type: cell-based; conditions: 144 h, 20 ppm of active ingredient, 6 days incubation, liquid culture, spectrometric measurement of mycelium growth, read-out: efficacy (inhibition of fungal growth)
Procedure: (§1) Solvent: dimethyl sulfoxide Culture medium: 14.6 g anhydrous D-glucose (VWR), • 7.1 g mycological peptone (Oxoid), • 1.4 g granulated yeast extract (Merck), QSP 1 liter Inoculum: spore suspension The tested compounds were solubilized in dimethyl sulfoxide and the solution used to prepare the required range of concentrations. […] A spore suspension of Colletotrichum lindemuthianum was prepared and diluted to the desired spore density. The compounds were evaluated for their ability to inhibit spore germination and mycelium growth in liquid culture assay. The compounds were added in the desired concentration to the culture medium with spores. After 6 days incubation, fungi-toxicity of compounds was determined by spectrometric measurement of mycelium growth. Inhibition of fungal growth was determined by comparing the absorbance values in wells containing the tested compound with the absorbance in control wells without the tested compound.

Leptnosphaeria nodorum = assay: In vitro cell test on Leptnosphaeria nodorum; assay type: cell-based; conditions: 120 h; 20 ppm of active ingredient; 5 days incubation; liquid culture, spectrometric measurement of mycelium growth; read-out: efficacy (inhibition of fungal growth)
Procedure: as §1, with “of Leptnosphaeria nodorum” for “of Colletotrichum lindemuthianum”, “After 5” for “After 6”

C[Si](C)(C)c1sccc1Cn1cnc2ccccc21 [I.25]
logP [1]: 2.08

Cc1nc2c(F)c(F)ccc2cc1Cc1sccc1[Si](C)(C)C [I.28, 7,8-difluoro-2-methyl-3-{[3-(trimethylsilyl)-2-thienyl]methyl}-quinoline]
chromatographic logP [1]: 5.25

Cc1nc2c(F)c(F)ccc2nc1Oc1cncc(Cl)c1Br [IIc.01, 2-[(4-bromo-5-chloropyridin-3-yl)oxy]-5,6-difluoro-3-methylquinoxaline]
chromatographic logP [1]: 4.06

Cc1nc2c(F)c(F)ccc2cc1Oc1sccc1Br [IIf.01, 3-[(3-bromo-2-thienyl)oxy]-7,8-difluoro-2-methylquinoline]
chromatographic logP [1]: 4.23

Cc1nc2c(F)c(F)ccc2nc1Oc1cc(Cl)ncc1Br [IIb.02, 2-[(5-bromo-2-chloropyridin-4-yl)oxy]-5,6-difluoro-3-methylquinoxaline]
chromatographic logP [1]: 4.2

C[Si](C)(C)c1c(Oc2cnc3ccccc3c2)ccnc1F [I.03, 3-{[2-fluoro-3-(trimethylsilyl)pyridin-4-yl]oxy}quinoline]
chromatographic logP [1]: 4.08
inhibition at 20 ppm (Pyricularia oryzae): 90 to 100%
inhibition at 20 ppm [2]: 90 to 100%
inhibition at 20 ppm (Leptnosphaeria nodorum): 90 to 100%

Cc1nc2c(F)c(F)ccc2nc1Oc1cnccc1[Si](C)(C)C [I.19]
logP [1]: 3.94

Cc1nc2c(F)c(F)ccc2cc1Oc1ccnc(C(F)(F)F)c1Br [IIb.09, 3-{[3-bromo-2-(trifluoromethyl)pyridin-4-yl]oxy}-7,8-difluoro-2-methylquinoline]
chromatographic logP [1]: 4.01

Cc1nc2c(F)c(F)ccc2nc1Oc1ccncc1[Si](C)(C)C [I.18]
logP [1]: 2.80

C[Si](C)(C)c1cnccc1Oc1cnc2ccccc2n1 [I.01]
logP [1]: 2.64

Fc1nccc(Nc2cnc3ccccc3c2)c1Br [IIb.08, N-(3-bromo-2-fluoropyridin-4-yl)quinolin-3-amine]
chromatographic logP [1]: 2.25

Cc1nc2ccccc2cc1Oc1cnccc1Br [IIc.02, 3-[(4-bromopyridin-3-yl)oxy]-2-methylquinoline]
chromatographic logP [1]: 2.44

Fc1nccc(Oc2cnc3ccccc3c2)c1Br [IIb.01, 3-[(3-bromo-2-fluoropyridin-4-yl)oxy]quinoline]
logP [1]: 2.92
chromatographic logP [1]: 2.96

Fc1nccc(Oc2cnc3c(F)cccc3c2)c1Br [IIb.06, 3-[(3-bromo-2-fluoropyridin-4-yl)oxy]-8-fluoroquinoline]
chromatographic logP [1]: 2.98

Fc1ccc2nc(Oc3ccncc3Br)cnc2c1F [IIb.03, 2-[(3-bromopyridin-4-yl)oxy]-5,6-difluoroquinoxaline]
chromatographic logP [1]: 1.81

Clc1ncnc(Oc2cnc3ccccc3c2)c1Br [IIe.01, 3-[(5-bromo-6-chloropyrimidin-4-yl)oxy]quinoline]
chromatographic logP [1]: 3.09

Cc1nc2ccccc2cc1Oc1ccnc(F)c1 [VIIa.02, 3-[(2-fluoropyridin-4-yl)oxy]-2-methylquinoline]
chromatographic logP [1]: 2.17

C[Si](C)(C)c1cnccc1Oc1cnc2ccccc2c1 [I.02]
logP [1]: 2.15

Cc1nc2ccccc2nc1Oc1ccncc1[Si](C)(C)C [I.23]
logP [1]: 2.49

Clc1cc(Oc2cnc3ccccc3c2)ccn1 [VIIa.01, 3-[(2-chloropyridin-4-yl)oxy]quinoline]
chromatographic logP [1]: 2.47

Clc1nccc(Nc2cnc3ccccc3c2)c1Br [IIb.04, N-(3-bromo-2-chloropyridin-4-yl)quinolin-3-amine]
chromatographic logP [1]: 2.35

Clc1nccc(Oc2cnc3ccccc3c2)c1Br [IIb.07, 3-[(3-bromo-2-chloropyridin-4-yl)oxy]quinoline]
chromatographic logP [1]: 2.35

Cc1nc2c(F)c(F)ccc2nc1Oc1ncc(Cl)cc1Br [IId.01, 2-[(3-bromo-5-chloropyridin-2-yl)oxy]-5,6-difluoro-3-methylquinoxaline]
chromatographic logP [1]: 4.72

Cc1nc2ccccc2n1Cc1sccc1[Si](C)(C)C [I.24, 2-methyl-1-{[3-(trimethylsilyl)-2-thienyl]methyl}-1H-benzimidazole]
chromatographic logP [1]: 2.13
inhibition at 20 ppm (Pyricularia oryzae): 90 to 100%
inhibition at 20 ppm [2]: 90 to 100%
inhibition at 20 ppm (Leptnosphaeria nodorum): 90 to 100%

Fc1cccc2cc(Nc3cccnc3Cl)cnc12 [IIa.04, N-(2-chloropyridin-3-yl)-8-fluoroquinolin-3-amine]
chromatographic logP [1]: 2.14

Fc1ccc2nc(Oc3cccnc3Br)cnc2c1F [IIa.03, 2-[(2-bromopyridin-3-yl)oxy]-5,6-difluoroquinoxaline]
chromatographic logP [1]: 2.96

Fc1cc(Oc2cnc3ccccc3c2)ncn1 [VIIb.01, 3-[(6-fluoropyrimidin-4-yl)oxy]quinoline]
chromatographic logP [1]: 2.08

Fc1cc(Oc2cnc3ccccc3c2)ccn1 [VIIa.03, 3-[(2-fluoropyridin-4-yl)oxy]quinoline]
chromatographic logP [1]: 2.25

C[Si](C)(C)c1cnccc1Oc1cnc2c(F)cccc2n1 [I.15]
logP [1]: 2.75

COc1nccc(Oc2cc3ccc(F)c(F)c3nc2C)c1Br [IIb.05, 3-[(3-bromo-2-methoxypyridin-4-yl)oxy]-7,8-difluoro-2-methylquinoline]
chromatographic logP [1]: 3.85

Cc1nc2c(F)c(F)ccc2cc1Nc1ncc(Cl)cc1Br [IId.02, N-(3-bromo-5-chloropyridin-2-yl)-7,8-difluoro-2-methylquinolin-3-amine]
chromatographic logP [1]: 4.36

C[Si](C)(c1ccccc1)c1sccc1Cn1cnc2ccccc21 [I.26]
logP [1]: 2.49

C[Si](C)(Cc1ccccc1)c1c(Oc2cnc3ccccc3c2)ccnc1F [I.06, 3-({3-[benzyl(dimethyl)silyl]-2-fluoropyridin-4-yl}oxy)quinoline]
chromatographic logP [1]: 4.78
inhibition at 20 ppm (Pyricularia oryzae): 90 to 100%
inhibition at 20 ppm [2]: 80 to 89%
inhibition at 20 ppm (Leptnosphaeria nodorum): 80 to 89%

Cc1nc2c(F)c(F)ccc2nc1Oc1cccnc1Br [IIa.01, 2-[(2-bromopyridin-3-yl)oxy]-5,6-difluoro-3-methylquinoxaline]
chromatographic logP [1]: 3.26

Cc1nc2c(F)c(F)ccc2nc1Oc1cc(Cl)cnc1Br [IIa.02, 2-[(2-bromo-5-chloropyridin-3-yl)oxy]-5,6-difluoro-3-methylquinoxaline]
chromatographic logP [1]: 4.3

Cc1nc2c(F)c(F)ccc2cc1Nc1ccnc(C(F)(F)F)c1Br [IIb.10, N-[3-bromo-2-(trifluoromethyl)pyridin-4-yl]-7,8-difluoro-2-methylquinolin-3-amine]
chromatographic logP [1]: 3.37

Cc1nc2c(F)c(F)ccc2nc1Oc1cnccc1Br [IIc.03, 2-[(4-bromopyridin-3-yl)oxy]-5,6-difluoro-3-methylquinoxaline]
chromatographic logP [1]: 3.19
